The target in the data set is T1, Human glucokinase (Homo sapiens, UniProt P35557).
T1 construct: the glucokinase polypeptide beginning with Ser-6 is obtained; GST (N, cleaved yes); made in house; host or cells: E. coli BL21
T1 sequence (P35557 6-464 isoform P35557-3 limits assumed): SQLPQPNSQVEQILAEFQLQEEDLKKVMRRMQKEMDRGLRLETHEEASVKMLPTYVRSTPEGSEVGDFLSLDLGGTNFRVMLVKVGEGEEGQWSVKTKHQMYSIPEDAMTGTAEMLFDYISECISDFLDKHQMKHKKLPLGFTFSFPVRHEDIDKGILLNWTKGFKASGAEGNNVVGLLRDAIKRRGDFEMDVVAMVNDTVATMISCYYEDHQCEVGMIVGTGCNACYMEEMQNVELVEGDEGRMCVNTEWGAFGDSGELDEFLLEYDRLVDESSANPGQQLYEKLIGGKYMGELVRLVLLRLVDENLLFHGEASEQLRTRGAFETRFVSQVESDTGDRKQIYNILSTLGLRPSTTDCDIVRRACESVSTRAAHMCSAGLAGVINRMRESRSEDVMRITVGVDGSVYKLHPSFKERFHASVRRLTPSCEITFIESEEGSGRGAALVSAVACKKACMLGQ
The data set is described as follows: Enzymatic test of glucokinase activators (coupled optical test). Format: biochemical. Conditions: 5 mM glucose; for Concentration raising glucokinase activity by 50% (EC150): concentration of test compound which increases the enzymatic activity by 50% (0 μM = 100%), 25° C., 1 mM ATP, pH 7; for Fold induction: maximum fold stimulation: highest change in extinction in the concentration range 0.1-100 μM relative to change without test substance. From the text: Enzymatic Test of Glucokinase Activators
Human glucokinase is expressed as a fusion protein with glutathione S-transferase (GST) in E. coli BI21 and purified by affinity chromatography. […] is cleaved off by digestion with factor Xa, and the glucokinase polypeptide beginning with Ser-6 is obtained. The latter is purified chromatographically. At room temperature, a typical glucokinase preparation has a specific activity of 30 U/mg protein.
The activity of glucokinase and the effect of compounds on this activity are determined by a coupled optical test at 25° C. The test volume is 100 μl. The test composition is: 25 mM HEPES/NaOH (Merck; #110110) pH 7, 25 mM KCl (Merck; #04933), 2 mM MgCl2 (Merck; #05833), 1 mM dithiothreitol (Merck; #112013), 1 mM NAD (Sigma; #N1511), 5 mM glucose (Merck; #108337), 1 mM ATP (Sigma; #A2383), 0.1% (w/v) bovine serum albumin (Merck; #112018), 0.002 U glucokinase preparation and 3.2 U glucose 6-phosphate dehydrogenase (Sigma; #G8529). The mixture furthermore contains a test compound. The test compounds are in each case dissolved in 10 mM DMSO and are tested at final concentrations of 0 μM, 0.1 μM, 0.3 μM, 1 μM, 3 μM, 10 μM, 30 μM and 100 μM. The final concentration of DMSO in the test is 1% (v/v). The reaction is started by addition of ATP. The absorption of the mixture at 340 nm is determined immediately after the addition of ATP and then 25 min later using a multiwell plate photometer (from Labsystems, Multiskan Ascent). The change of the absorption during this period is calculated.
The crude data of the changes in extinction are transferred into a Microsoft Excel file. The value for 0 μM test compound is assigned to be 100%. Dose/activity curves are calculated using the program XL.Fit according to the instructions of the manufacturer (IDBS). The concentration of a test compound which increases the enzymatic activity by 50% is defined as EC150. The maximum fold stimulation corresponds to the ratio of the highest change in extinction in the concentration range of a test compound to the change of the absorption without test substance.

`CN1c2ccccc2S(=O)(=O)c2ccc(C(CC3CCOCC3)C(=O)Nc3nccs3)cc21` (centres unmarked) [Example 1, 2-(10-Methyl-5,5-dioxo-5,10-dihydrophenothiazin-2-yl)-3-(tetrahydropyran-4-yl)-N-thiazol-2-ylpropionamide] displayed a Concentration raising glucokinase activity by 50% (EC150) of 4200 nM and a Fold induction of 2.0.

In turn, `CN1c2ccccc2S(=O)(=O)c2ccc(C(CC3CCOCC3)C(=O)Nc3ccn(C)n3)cc21` (centres unmarked) [Example 5, 2-(10-Methyl-5,5-dioxo-5,10-dihydrophenothiazin-2-yl)-N-(1-methyl-1H-pyrazol-3-yl)-3-(tetrahydropyran-4-yl)propionamide] came in with a Concentration raising glucokinase activity by 50% (EC150) of 2100 nM and a Fold induction of 4.4.

The compound `Cc1ccc(NC(=O)C(CC2CCOCC2)c2ccc3c(c2)N(C)c2ccccc2S3(=O)=O)nn1` (centres unmarked) [Example 6, 2-(10-Methyl-5,5-dioxo-5,10-dihydrophenothiazin-2-yl)-N-(6-methylpyridazin-3-yl)-3-(tetrahydropyran-4-yl)propionamide] gave a Concentration raising glucokinase activity by 50% (EC150) of 15500 nM and a Fold induction of 2.1.

`CN1c2ccccc2S(=O)(=O)c2ccc(C(CC3CCCC3)C(=O)Nc3nccs3)cc21` (centres unmarked) [Example 9, 3-Cyclopentyl-2-(10-methyl-5,5-dioxo-5,10-dihydrophenothiazin-2-yl)-N-thiazol-2-yl-propionamide] came in with a Concentration raising glucokinase activity by 50% (EC150) of 2200 nM and a Fold induction of 2.8.

`COc1ccc2nc(NC(=O)C(CC3CCOCC3)c3ccc4c(c3)N(C)c3ccccc3S4(=O)=O)sc2n1` (centres unmarked) [Example 15, N-(5-Methoxy-thiazolo[5,4-b]pyridin-2-yl)-2-(10-methyl-5,5-dioxo-5,10-dihydrophenothiazin-2-yl)-3-(tetrahydropyran-4-yl)propionamide] showed a Concentration raising glucokinase activity by 50% (EC150) of 900 nM and a Fold induction of 5.0.

`CN1c2ccccc2S(=O)(=O)c2ccc(C(CC3CCC(=O)CC3)C(=O)Nc3ccn(C)n3)cc21` (centres unmarked) [Example 36, 2-(10-Methyl-5,5-dioxo-5,10-dihydrophenothiazin-2-yl)-N-(1-methyl-1H-pyrazol-3-yl)-3-(4-oxocyclohexyl)propionamide] came in with a Concentration raising glucokinase activity by 50% (EC150) of 500 nM and a Fold induction of 4.0.

The compound `COc1ccc2nc(NC(=O)C(C[C@H]3CCC(=O)C3)c3ccc4c(c3)N(C)c3ccccc3S4(=O)=O)sc2n1` (stereo partly drawn) [Example 41, N-(5-Methoxythiazolo[5,4-b]pyridin-2-yl)-2-(10-methyl-5,5-dioxo-5,10-dihydrophenothiazin-2-yl)-3-((R)-3-oxocyclopentyl)propionamide] had a Concentration raising glucokinase activity by 50% (EC150) of 700 nM and a Fold induction of 3.9.

On to `CCOC(=O)c1ccc2c(c1)S(=O)(=O)c1ccc(C(CC3CCC(=O)C3)C(=O)Nc3ccn(C)n3)cc1N2C` (centres unmarked) [Example 42, Ethyl 10-methyl-8-[1-(1-methyl-1H-pyrazol-3-ylcarbamoyl)-2-(3-oxocyclopentyl)-ethyl]-5,5-dioxo-5,10-dihydrophenothiazine-3-carboxylate], for which the Concentration raising glucokinase activity by 50% (EC150) was found to be 1200 nM and the Fold induction is 3.6.

`Cn1ccc(NC(=O)C(C[C@H]2CCC(=O)C2)c2ccc3c(c2)Nc2ccccc2S3(=O)=O)n1` (stereo partly drawn) [Example 46, 2-(5,5-Dioxo-5,10-dihydrophenothiazin-2-yl)-N-(1-methyl-1H-pyrazol-3-yl)-3-((R)-3-oxocyclopentyl)propionamide] came in with a Concentration raising glucokinase activity by 50% (EC150) of 600 nM and a Fold induction of 5.0.

`Cn1ccc(NC(=O)C(CC2CC=C(F)CC2)c2ccc3c(c2)Nc2ccccc2S3(=O)=O)n1` (centres unmarked) [Example 54, 2-(5,5-Dioxo-5,10-dihydrophenothiazin-2-yl)-3-(4-fluorocyclohex-3-enyl)-N-(1-methyl-1H-pyrazol-3-yl)propionamide] registered a Concentration raising glucokinase activity by 50% (EC150) of 1000 nM and a Fold induction of 4.5.
